Reference: patent publication US8741897B2, “Glucocorticoid mimetics, methods of making them, pharmaceutical compositions and uses thereof” (Boehringer Ingelheim Pharmaceuticals Inc., priority 2003, dated 2014)

Experiments:
[1] = target: T1, human glucocorticoid receptor (GR) complex (Homo sapiens, UniProt P04150); test: Glucocorticoid receptor competitive binding assay (fluorescence polarization, TAMRA-labeled dexamethasone probe); settings: compounds of Formula (IA)
T1 construct: made in house; host or cells: insect expression system (baculovirus lysate)
T1 sequence (P04150 1-777): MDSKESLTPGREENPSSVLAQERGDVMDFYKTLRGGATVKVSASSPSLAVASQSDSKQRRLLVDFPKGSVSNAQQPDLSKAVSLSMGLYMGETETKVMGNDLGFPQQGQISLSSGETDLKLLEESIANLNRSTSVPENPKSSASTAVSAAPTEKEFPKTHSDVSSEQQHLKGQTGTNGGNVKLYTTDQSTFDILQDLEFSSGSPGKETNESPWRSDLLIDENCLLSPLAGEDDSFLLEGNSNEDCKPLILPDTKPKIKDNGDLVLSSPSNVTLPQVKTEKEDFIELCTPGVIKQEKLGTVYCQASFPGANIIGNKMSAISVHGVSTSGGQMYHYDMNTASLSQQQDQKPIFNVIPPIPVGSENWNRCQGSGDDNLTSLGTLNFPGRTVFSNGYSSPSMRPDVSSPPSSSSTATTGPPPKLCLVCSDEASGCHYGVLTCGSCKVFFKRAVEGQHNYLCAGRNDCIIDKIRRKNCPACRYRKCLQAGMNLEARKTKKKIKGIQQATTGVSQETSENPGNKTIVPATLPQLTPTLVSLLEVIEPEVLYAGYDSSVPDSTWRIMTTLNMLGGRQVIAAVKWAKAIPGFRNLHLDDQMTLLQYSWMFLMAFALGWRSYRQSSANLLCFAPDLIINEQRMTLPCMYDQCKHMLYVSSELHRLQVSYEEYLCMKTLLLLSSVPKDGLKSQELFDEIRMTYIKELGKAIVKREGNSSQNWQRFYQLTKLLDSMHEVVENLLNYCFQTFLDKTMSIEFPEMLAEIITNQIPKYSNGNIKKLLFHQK
Description: Compounds of the invention were evaluated for binding to the steroid receptor by a fluorescence polarization competitive binding assay. Detailed descriptions for preparation of recombinant glucocorticoid receptor (GR) complex used in the assay is described in U.S. patent application Pub.
A. Glucocorticoid Receptor Competitive Binding Assay
Step 1. Characterization of the Fluorescent Probe
The wavelengths for maximum excitation and emission of the fluorescent probe should first be measured. An example of such a probe is rhodamine (TAMRA)-labeled dexamethasone.
The affinity of the probe for the steroid receptor was then determined in a titration experiment. The fluorescence polarization value of the probe in assay buffer was measured on an SLM-8100 fluorometer using the excitation and emission maximum values described above. Aliquots of expression vector lysate were added and fluorescence polarization was measured after each addition until no further change in polarization value was observed. Non-linear least squares regression analysis was used to calculate the dissociation constant of the probe from the polarization values obtained for lysate binding to the probe.
Step 2. Screening for Inhibitors of Probe Binding
This assay uses fluorescence polarization (FP) to quantitate the ability of test compounds to compete with tetramethyl rhodamine (TAMRA)-labeled dexamethasone for binding to a human glucocorticoid receptor (GR) complex prepared from an insect expression system. The assay buffer was: 10 mM TES, 50 mM KCl, 20 mM Na2MoO4.2H2O, 1.5 mM EDTA, 0.04% w/v CHAPS, 10% v/v glycerol, 1 mM dithiothreitol, pH 7.4. Test compounds were dissolved to 1 mM in neat DMSO and then further diluted to 10× assay concentration in assay buffer supplemented with 10% v/v DMSO. Test compounds were serially diluted at 10× assay concentrations in 10% DMSO-containing buffer in 96-well polypropylene plates. Binding reaction mixtures were prepared in 96-well black Dynex microtiter plates by sequential addition of the following assay components to each well: 15 μL of 10× test compound solution, 85 μL of GR-containing baculovirus lysate diluted 1:170 in assay buffer, and 50 μL of 15 nM TAMRA-labeled dexamethasone. Positive controls were reaction mixtures containing no test compound; negative controls (blanks) were reaction mixtures containing 0.7 μM to 2 μM dexamethasone. […] IC50 values were determined by iterative non-linear curve fitting of the FP signal data to a 4-parameter logistic equation.

[2] = system: glucocorticoid receptor function; test: one or more of the above assays (GR binding and glucocorticoid receptor cell assays: aromatase, IL-6, TAT, MMTV-Luc, IL-8, ICAM-Luc); type: cell-based; settings: assay not specified per compound

SMILES	activity in the GR binding assay [1]	activity as agonists of the glucocorticoid receptor function in one or more of the above assays [2]
COc1ccc(F)cc1C(C)(C)CC(O)(Cc1cc2cnc(C)cc2[nH]1)C(F)(F)F (centres unmarked) [1,1,1-Trifluoro-4-(5-fluoro-2-methoxyphenyl)-4-methyl-2-(6-methyl-1H-pyrrolo[3,2-c]pyridin-2-ylmethyl)pentan-2-ol]	potent activity	potent agonists
Cc1cccc(C(C)(C)CC(O)(Cc2cc(C)nc(C)c2)C(F)(F)F)c1 (centres unmarked) [2-(2,6-Dimethylpyridin-4-ylmethyl)-1,1,1-trifluoro-4-methyl-4-m-tolylpentan-2-ol]	potent activity	potent agonists
Cc1ccccc1C(C)(C)CC(O)(Cc1ccnc2ccccc12)C(F)(F)F (centres unmarked) [1,1,1-Trifluoro-4-methyl-2-quinolin-4-ylmethyl-4-o-tolylpentan-2-ol]	potent activity	potent agonists
Cc1cc(C#N)cc2[nH]c(CC(O)(CC(C)(C)c3cc(Br)cc4c3OCC4)C(F)(F)F)cc12 (centres unmarked) [2-[4-(5-Bromo-2,3-dihydrobenzofuran-7-yl)-2-hydroxy-4-methyl-2-trifluoromethylpentyl]-4-methyl-1H-indole-6-carbonitrile]	potent activity	potent agonists
Cc1ccc(F)cc1C(C)(C)CC(O)(Cc1cc2cnccc2[nH]1)C(F)(F)F (centres unmarked) [1,1,1-Trifluoro-4-(5-fluoro-2-methylphenyl)-4-methyl-2-(1H-pyrrolo[3,2-c]pyridin-2-ylmethyl)pentan-2-ol]	potent activity	potent agonists
CC(C)(CC(O)(Cc1cc(Cl)nc(Cl)c1C#N)C(F)(F)F)c1cc(F)ccc1O (centres unmarked) [2,6-Dichloro-4-[4-(5-fluoro-2-hydroxyphenyl)-2-hydroxy-4-methyl-2-trifluoromethylpentyl]nicotinonitrile]	potent activity	potent agonists
COc1ccc(F)cc1C(C)(C)CC(O)(Cc1cc2cc(C(=O)NCC#N)ccc2[nH]1)C(F)(F)F (centres unmarked) [2-[4-(5-Fluoro-2-methoxyphenyl)-2-hydroxy-4-methyl-2-trifluoromethylpentyl]-1H-indole-5-carboxylic acid cyanomethylamide]	potent activity	potent agonists
Cc1cc(C#N)cc2[nH]c(CC(O)(CC(C)(C)c3ccc(F)cc3O)C(F)(F)F)cc12 (centres unmarked) [2-[4-(4-Fluoro-2-hydroxyphenyl)-2-hydroxy-4-methyl-2-trifluoromethylpentyl]-4-methyl-1H-indole-6-carbonitrile]	potent activity	potent agonists
CC(C)(CC(O)(Cc1cc2nc(C#N)ccc2[nH]1)C(F)(F)F)c1cc(Cl)cc2c1OCC2 (centres unmarked) [2-[4-(5-Chloro-2,3-dihydrobenzofuran-7-yl)-2-hydroxy-4-methyl-2-trifluoromethylpentyl]-1H-pyrrolo[3,2-b]pyridine-5-carbonitrile]	potent activity	potent agonists
Cc1c(CC(O)(CC(C)(C)c2cccc(F)c2)C(F)(F)F)[nH]c2ccccc12 (centres unmarked) [1,1,1-Trifluoro-4-(3-fluorophenyl)-4-methyl-2-(3-methyl-1H-indol-2-ylmethyl)pentan-2-ol]	potent activity	potent agonists
COc1ccc(C)cc1C(C)(C)CC(O)(Cc1cc2c(C)cc(C#N)cc2[nH]1)C(F)(F)F (centres unmarked) [2-[2-Hydroxy-4-(2-methoxy-5-methylphenyl)-4-methyl-2-trifluoromethylpentyl]-4-methyl-1H-indole-6-carbonitrile]	potent activity	
CC(C)(CC(O)(Cc1cc2ccc(C(N)=O)cc2[nH]1)C(F)(F)F)c1cc(F)ccc1O (centres unmarked) [2-[4-(5-Fluoro-2-hydroxyphenyl)-2-hydroxy-4-methyl-2-trifluoromethylpentyl]-1H-indole-6-carboxylic acid amide]	potent activity	
CN(C)C(=O)c1ccc2cc(CC(O)(CC(C)(C)c3cc(F)ccc3O)C(F)(F)F)[nH]c2c1 (centres unmarked) [2-[4-(5-Fluoro-2-hydroxyphenyl)-2-hydroxy-4-methyl-2-trifluoromethylpentyl]-1H-indole-6-carboxylic acid dimethylamide]	potent activity	
COc1ccc(F)cc1C(C)(C)CC(O)(Cc1ccncc1)C(F)(F)F (centres unmarked) [1,1,1-Trifluoro-4-(5-fluoro-2-methoxyphenyl)-4-methyl-2-pyridin-4-ylmethylpentan-2-ol]	potent activity	
Cc1ccc(F)cc1C(C)(C)CC(O)(Cc1cc2nnccc2[nH]1)C(F)(F)F (centres unmarked) [1,1,1-Trifluoro-4-(5-fluoro-2-methylphenyl)-4-methyl-2-(5H-pyrrolo[3,2-c]pyridazin-6-ylmethyl)pentan-2-ol]	potent activity	
COc1ccc(F)cc1C(C)(C)CC(O)(Cn1ccc2cccnc21)C(F)(F)F (centres unmarked) [1,1,1-Trifluoro-4-(5-fluoro-2-methoxyphenyl)-4-methyl-2-pyrrolo[2,3-b]pyridin-1-ylmethylpentan-2-ol]	potent activity	
COc1ccc(F)cc1C(C)(C)CC(O)(Cc1cc2cc(C(=O)NCCO)ccc2[nH]1)C(F)(F)F (centres unmarked) [2-[4-(5-Fluoro-2-methoxyphenyl)-2-hydroxy-4-methyl-2-trifluoromethylpentyl]-1H-indole-5-carboxylic acid (2-hydroxyethyl)amide]	potent activity	
CNC(=O)c1ccc2[nH]c(CC(O)(CC(C)(C)c3cc(F)ccc3OC)C(F)(F)F)cc2c1 (centres unmarked) [2-[4-(5-Fluoro-2-methoxyphenyl)-2-hydroxy-4-methyl-2-trifluoromethylpentyl]-1H-indole-5-carboxylic acid methylamide]	potent activity	
COc1ccc(F)cc1C(C)(C)CC(O)(Cc1cc2ccccc2s1)C(F)(F)F (centres unmarked) [2-Benzo[b]thiophen-2-ylmethyl-1,1,1-trifluoro-4-(5-fluoro-2-methoxyphenyl)-4-methylpentan-2-ol]	potent activity	
COc1ccc(F)cc1C(C)(C)CC(O)(Cc1cc(Cl)nc2ccc(Cl)cc12)C(F)(F)F (centres unmarked) [2-(2,6-Dichloroquinolin-4-ylmethyl)-1,1,1-trifluoro-4-(5-fluoro-2-methoxyphenyl)-4-methylpentan-2-ol]	potent activity	
COc1ccc(F)cc1C(C)(C)CC(O)(Cc1cc2nc(C)ncc2[nH]1)C(F)(F)F (centres unmarked) [1,1,1-Trifluoro-4-(5-fluoro-2-methoxyphenyl)-4-methyl-2-(2-methyl-5H-pyrrolo[3 ,2-d]pyrimidin-6-ylmethyl)pentan-2-ol]	potent activity	
COc1ccc(F)cc1C(C)(C)CC(O)(Cn1ccc2cnccc21)C(F)(F)F (centres unmarked) [1,1,1-Trifluoro-4-(5-fluoro-2-methoxyphenyl)-4-methyl-2-pyrrolo[3,2-c]pyridin-1-ylmethylpentan-2-ol]	potent activity	
